Measured values: US12063932B2, “Method of promoting plant growth effects” (Bayer CropScience Aktiengesellschaft, priority 2016, dated 2024)

Legend:
Format in all cases: in vivo
[1] = tested on: Roses of the variety Kordana Mixkar; assay: Rose foliar application: number of flowers by visual inspection (Example D); conditions: for No Flowers, Average (A to E): average of five replicates, untreated controls 9.4 and 10.2; for No Flowers, A: replicate A; for No Flowers, A / No Flowers, B / No Flowers, C / No Flowers, D / No Flowers, E: assessed 2016-06-14; for No Flowers, B: replicate B; for No Flowers, C: replicate C; for No Flowers, D: replicate D; for No Flowers, E: replicate E
Method: FIGS. 2A-2H. Rose plants of the variety Kordana Mixkar were treated in five replicates. Untreated control is shown in FIG. 2A (side view) and FIG. 2B (top view). Treatment at 1 ppm is shown in FIG. 2C (side view) and FIG. 2D (top view). Treatment at 80 ppm is shown in FIG. 2E (side view) and FIG. 2F (top view). Treatment at 420 ppm is showing in FIG. 2G (side view) and FIG. 2H (top view). Rose plants were evaluated for quantity and fullness of flowers.
Roses of the variety Kordana Mixkar were cultivated in 2 litre pots in soil in the greenhouse at 23 degree Celsius and 80% humidity. Compound (A) and Clopyralid as a comparison were applied as a foliar application on 2016-05-25 at application rates according to the following table 3 Ammonium sulfate and methylated soybean oil were used as penetration enhancing agents.
Rose plants were treated in five replicates. The number of flowers was assessed by visual inspection on 2016-06-14.

[2] = tested on: Soybean seeds of the variety Merlin; assay: Soybean seed treatment: plant height, fresh and dry weight of stem and roots after 19 days (Example A); conditions: for dry weight roots, % of untreated control / dry weight stem, % of untreated control / fresh weight roots, % of untreated control / fresh weight stem, % of untreated control: untreated control given as 100
Method: Soybean seeds of the variety Merlin were treated with 1.2, 0.6 and 0.3 g of compound (A) per 100 kg seeds. Compound (A) was provided as an aqueous solution with a concentration of 1000 ppm compound (A). The treated seeds were seeded into soil/quartz in five replicates at the same day. Germination was observed four days later. Plant height, fresh and dry weight of stem and roots were determined after 19 days.

[3] = tested on: Soybean seeds of the variety Merlin; assay: Soybean seed treatment: root volume after 19 days (Example B); conditions: untreated control 0.82
Method: Soybean seeds of the variety Merlin were treated with 1.2, 0.6 and 0.3 g of compound (A) per 100 kg seeds. Compound (A) was provided as an aqueous solution with a concentration of 1000 ppm compound (A). The treated seeds were seeded into soil/quartz in five replicates at the same day. Germination was observed four days later. Root volume was determined after 19 days.

[4] = tested on: Soybean seeds of the variety Merlin; assay: Soybean seed treatment: comparative photographs of seedlings after 19 days (Example C)
Method: FIGS. 1A-1H. Soybean seeds of the variety Merlin were untreated FIG. 1A (top view) and FIG. 1B (side view), or treated 1.2 g/100 kg/seeds of Compound (A) in FIG. 1C (top view) and FIG. 1D (side view); or treated with 0.6 g/100 kg seeds of Compound (A) in FIG. 1E (Lop view) and FIG. 1F (side view); or treated with 0.3 g/100 kg seeds of compound (A) in FIG. 1G (top view) and FIG. 1H (side view). Seedlings were evaluated after 19 days. Soybean seeds of the variety Merlin were treated with 1.2, 0.6 and 0.3 g of compound (A) per 100 kg seeds. Compound (A) was provided as an aqueous solution with a concentration of 1000 ppm compound (A). The treated seeds were seeded into soil/quartz in five replicates at the same day. Germination was observed four days later. Comparative photographs were taken after 19 days.

[5] = seed treatment 0.3 g/100 kg seeds
[6] = seed treatment 0.6 g/100 kg seeds
[7] = seed treatment 1.2 g/100 kg seeds
[8] = 0.3 g/100 kg seeds, photographs after 19 days (FIGS. 1G, 1H)
[9] = 0.6 g/100 kg seeds, photographs after 19 days (FIGS. 1E, 1F)

O=C(O)c1ncc(C(F)(F)F)cc1Cl [Compound (A), 3-chloro-5-(trifluoromethyl)pyridine-2-carboxylic acid]
No Flowers, Average (A to E) ([1]; 1 ppm foliar): 9.6
No Flowers, A ([1]; 1 ppm foliar): 8
No Flowers, B ([1]; 1 ppm foliar): 7
No Flowers, C ([1]; 1 ppm foliar): 11
No Flowers, D ([1]; 1 ppm foliar): 10
No Flowers, E ([1]; 1 ppm foliar): 12
No Flowers, Average (A to E) ([1]; 10 ppm foliar): 10.2
No Flowers, A ([1]; 10 ppm foliar): 11
No Flowers, B ([1]; 10 ppm foliar): 10
No Flowers, C ([1]; 10 ppm foliar): 10
No Flowers, D ([1]; 10 ppm foliar): 10
No Flowers, E ([1]; 10 ppm foliar): 10
No Flowers, Average (A to E) ([1]; 20 ppm foliar): 10.6
No Flowers, A ([1]; 20 ppm foliar): 11
No Flowers, B ([1]; 20 ppm foliar): 10
No Flowers, C ([1]; 20 ppm foliar): 12
No Flowers, D ([1]; 20 ppm foliar): 10
No Flowers, E ([1]; 20 ppm foliar): 10
No Flowers, Average (A to E) ([1]; 40 ppm foliar): 11.2
No Flowers, A ([1]; 40 ppm foliar): 11
No Flowers, B ([1]; 40 ppm foliar): 8
No Flowers, C ([1]; 40 ppm foliar): 13
No Flowers, D ([1]; 40 ppm foliar): 12
No Flowers, E ([1]; 40 ppm foliar): 12
No Flowers, Average (A to E) ([1]; 80 ppm foliar): 11.4
No Flowers, A ([1]; 80 ppm foliar): 12
No Flowers, B ([1]; 80 ppm foliar): 13
No Flowers, C ([1]; 80 ppm foliar): 11
No Flowers, D ([1]; 80 ppm foliar): 11
No Flowers, E ([1]; 80 ppm foliar): 10
No Flowers, Average (A to E) ([1]; 170 ppm foliar): 8.8
No Flowers, A ([1]; 170 ppm foliar): 8
No Flowers, B ([1]; 170 ppm foliar): 10
No Flowers, C ([1]; 170 ppm foliar): 10
No Flowers, D ([1]; 170 ppm foliar): 5
No Flowers, E ([1]; 170 ppm foliar): 11
No Flowers, Average (A to E) ([1]; 250 ppm foliar): 5.4
No Flowers, A ([1]; 250 ppm foliar): 3
No Flowers, B ([1]; 250 ppm foliar): 9
No Flowers, C ([1]; 250 ppm foliar): 3
No Flowers, D ([1]; 250 ppm foliar): 4
No Flowers, E ([1]; 250 ppm foliar): 8
No Flowers, Average (A to E) ([1]; 420 ppm foliar): 5
No Flowers, A ([1]; 420 ppm foliar): 8
No Flowers, B ([1]; 420 ppm foliar): 7
No Flowers, C ([1]; 420 ppm foliar): 3
No Flowers, D ([1]; 420 ppm foliar): 4
No Flowers, E ([1]; 420 ppm foliar): 3
No Flowers, Average (A to E) ([1]; 850 ppm foliar): 5.2
No Flowers, A ([1]; 850 ppm foliar): 2
No Flowers, B ([1]; 850 ppm foliar): 3
No Flowers, C ([1]; 850 ppm foliar): 10
No Flowers, D ([1]; 850 ppm foliar): 5
No Flowers, E ([1]; 850 ppm foliar): 6
quantity and fullness of flowers versus untreated controls ([1]; foliar application, up to a concentration of 80 ppm, FIGS. 2C-2H): more and fuller flowers than the untreated controls
Fresh weight plant [2, 5]: 2.62 g
Plant height [% of untreated control] [2, 5]: 111 % of untreated control
dry weight roots, % of untreated control [2, 5]: 105%
dry weight stem, % of untreated control [2, 5]: 114%
fresh weight roots, % of untreated control [2, 5]: 106%
fresh weight stem, % of untreated control [2, 5]: 103%
Fresh weight plant [2, 6]: 2.53 g
Plant height [% of untreated control] [2, 6]: 103 % of untreated control
dry weight roots, % of untreated control [2, 6]: 108%
dry weight stem, % of untreated control [2, 6]: 107%
fresh weight roots, % of untreated control [2, 6]: 107%
fresh weight stem, % of untreated control [2, 6]: 100%
Fresh weight plant [2, 7]: 2.24 g
Plant height [% of untreated control] [2, 7]: 87 % of untreated control
dry weight roots, % of untreated control [2, 7]: 68%
dry weight stem, % of untreated control [2, 7]: 77%
fresh weight roots, % of untreated control [2, 7]: 69%
fresh weight stem, % of untreated control [2, 7]: 88%
Root volume [cm^3] [3, 5]: 0.83 cm^3
Root volume [cm^3] [3, 6]: 0.96 cm^3
Root volume [cm^3] [3, 7]: 0.50 cm^3
biomass of leaves in comparison to the untreated control [4, 8]: increased biomass of leaves
growth of the seedlings in comparison to the untreated control [4, 8]: higher growth of the seedlings
biomass of leaves in comparison to the untreated control [4, 9]: increased biomass of leaves
growth of the seedlings in comparison to the untreated control [4, 9]: higher growth of the seedlings
